Source: article PMC2762271 (Journal of medicinal chemistry, 2009)

Key:
[1] = system: tubulin; assay: Inhibition of tubulin polymerization; type: biochemical; settings: for fold less active than 5t as inhibitor of tubulin assembly: relative to 5t
[2] = system: L1210, FM3A, Molt4, CEM, and HeLa cell lines; assay: Antiproliferative activity, panel of five tumor cell lines; type: cell-based; settings: on average over the cell lines
[3] = system: L1210; assay: Antiproliferative activity, L1210 cell line; type: cell-based; settings: Mus musculus, L1210, read-out: IC50 L1210

## Nc1nc(Nc2ccccc2)sc1C(=O)c1ccccc1 [5a]
[1]
  fold less active than 5t as inhibitor of tubulin assembly: 5 fold

## COc1cccc(Nc2nc(N)c(C(=O)c3ccccc3)s2)c1 [5f]
[1]
  fold less active than 5t as inhibitor of tubulin assembly: 10 fold

## COc1cc(C(=O)c2sc(Nc3ccc(F)cc3)nc2N)cc(OC)c1OC [5r]
[2]
  average fold reduction of potency relative to 5q (cell growth inhibition): 27 fold

## COc1cc(C(=O)c2sc(Nc3ccc(Cl)cc3)nc2N)cc(OC)c1OC [5s]
[2]
  average fold reduction of potency relative to 5q (cell growth inhibition): 27 fold

## COc1cc(C(=O)c2sc(Nc3ccc(C)cc3)nc2N)cc(OC)c1OC [5t]
[1]; relative to 4a
  times more potent than 4a (tubulin assembly): 5 times
[1]; relative to CA-4
  times more potent than CA-4 (tubulin assembly): 2 times

## COc1ccc(Nc2nc(N)c(C(=O)c3cc(OC)c(OC)c(OC)c3)s2)cc1 [5u]
[2]
  average fold reduction of potency relative to 5q (cell growth inhibition): 83 fold

## COc1ccc(/C=C\c2cc(OC)c(OC)c(OC)c2)cc1O [CA-4, combretastatin A-4]
[3]
  IC50: 2.8 ± 1.1 nM
